This passage reports IC50 results from ChEMBL document CHEMBL5726598, “Compounds, compositions and methods” (2017).

Structures are written as SMILES.

The experiment has as its target T1, Receptor-interacting serine/threonine-protein kinase 1 (Homo sapiens, UniProt Q13546).
T1 sequence (Q13546 whole entry): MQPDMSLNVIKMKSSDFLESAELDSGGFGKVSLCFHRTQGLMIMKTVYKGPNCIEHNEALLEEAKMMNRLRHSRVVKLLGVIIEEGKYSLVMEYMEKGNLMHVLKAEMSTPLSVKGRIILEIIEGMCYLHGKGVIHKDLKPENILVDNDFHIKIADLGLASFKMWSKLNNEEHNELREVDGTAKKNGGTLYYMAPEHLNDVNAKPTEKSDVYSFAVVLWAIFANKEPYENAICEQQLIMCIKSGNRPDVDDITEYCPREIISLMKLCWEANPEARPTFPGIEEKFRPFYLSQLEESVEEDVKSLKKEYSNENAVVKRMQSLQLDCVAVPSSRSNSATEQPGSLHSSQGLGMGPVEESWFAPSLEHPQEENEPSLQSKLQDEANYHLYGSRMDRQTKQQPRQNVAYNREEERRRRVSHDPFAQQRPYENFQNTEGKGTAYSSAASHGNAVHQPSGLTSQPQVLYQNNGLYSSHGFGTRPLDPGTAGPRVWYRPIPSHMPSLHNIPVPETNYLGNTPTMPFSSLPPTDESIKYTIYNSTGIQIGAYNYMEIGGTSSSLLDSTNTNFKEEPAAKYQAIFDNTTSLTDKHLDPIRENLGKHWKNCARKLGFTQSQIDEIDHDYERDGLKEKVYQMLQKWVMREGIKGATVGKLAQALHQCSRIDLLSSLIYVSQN
As to the kind of experiment: For negative control the enzyme addition was replaced by assay buffer only.
For the molecule `CN1C(=O)[C@H](NC(=O)c2cc(Oc3ccc(F)cc3F)ccn2)CCc2cccnc21`, the IC50 is more than 3000 nM.
In the case of `CN1C(=O)[C@@H](NC(=O)c2cc(C3(c4ccccc4)CC3)on2)COc2cnccc21` it was 0.1 to 1000 nM; in that of `CN1C(=O)[C@@H](NC(=O)c2nn(Cc3ccccc3C#N)cc2F)COc2cccnc21`, 0.1 to 1000 nM.

For orientation: IC50 means the concentration at which inhibition is half-maximal. The low end stands for inhibition by little substance, the high end for a need for much substance.
